According to patent US11053234B2 (GlaxoSmithKline Intellectual Property Development Limited, priority 2016, dated 2021):

Assays:
[1] = tested on: normal mice; test: in vivo assay for muscle function following limb muscle injury; details: FIG. 1
[2] = molecular target: T1, haematopoietic prostaglandin D synthase (H-PGDS) (Homo sapiens, UniProt O60760); test: H-PGDS RapidFire high throughput mass spectrometry assay (conversion of PGH2 to PGD2); assay type: biochemical; details: 10 nM H-PGDS, PGH2 formed in situ by COX-2 from arachidonic acid; read-out: Potency Range (mean pIC50) (converted)
T1 construct: Full length human H-PGDS cDNA (Invitrogen Ultimate ORF 10H13026) was amplified by PCR; 6-His (N); TEV protease cleavage site (N); made in house; host or cells: E. coli BL21 (DE3*), vector pET22b+
Summary of the method: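 PGH2 substrate generated in situ by COX-2 (full-length human, FLAG-tagged, Sf9-expressed) from arachidonic acid at ˜10 μM, then converted by full-length human His-tagged H-PGDS (E. coli-expressed). RapidFire SPE–triple quadrupole MS measured PGD2 against PGF2α as substrate surrogate to give percent conversion.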

[3] = tested on: male C57BI/6N mice; test: In vivo assay for functional response to muscle injury (eccentric contraction-induced muscle fatigue); parameters: species or system mouse; details: vs vehicle, FIG. 1
Source text: In Vivo Assays for Functional Response to Muscle Injury
Under anesthesia, the right hind limb of a mouse is restrained at the knee and the foot attached to a motorized footplate/force transducer. Needle electrodes are inserted into the upper limb, either side of the sciatic nerve and a current sufficient to elicit a maximal muscle contraction is applied. Muscle tension is produced by moving the footplate to lengthen the plantarflexor muscles while the limb is under maximal stimulation. This is repeated 60 times to fatigue the muscles of the lower limb. Anesthesia, limb immobilization and limb stimulation are then repeated at regular intervals to measure maximal isometric force in the recovering limb. 7 to 9 animals are tested for each test condition.

T1 sequence (O60760 whole entry): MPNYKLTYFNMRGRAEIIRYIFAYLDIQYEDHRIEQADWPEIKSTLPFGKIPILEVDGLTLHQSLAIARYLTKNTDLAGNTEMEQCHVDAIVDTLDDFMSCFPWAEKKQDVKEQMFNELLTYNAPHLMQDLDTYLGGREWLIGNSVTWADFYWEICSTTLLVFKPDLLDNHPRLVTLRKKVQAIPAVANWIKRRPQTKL

Compound	functional repair dose response curves of H-PGDS inhibition following limb muscle injury [1]	IC50 [2] [nM]	kinetics of recovery of maximal isometric force after eccentric contraction injury ([3]; PO 3, 10 and 30 mg/kg BID beginning 10 min prior to eccentric contraction challenge)	initial magnitude of the injury, isometric limb force 24-hours following protocol initiation ([3]; PO 3, 10 and 30 mg/kg BID, 24 hours)
CC(C)(O)[C@H]1CC[C@H](NC(=O)N2CC(Oc3cc(F)cc4scnc34)C2)CC1 [Example 141, 3-((6-Fluorobenzo[d]thiazol-4-yl)oxy)-N-((trans)-4-(2-hydroxypropan-2-yl)cyclohexyl)azetidine-1-carboxamide]	protection and acceleration of functional repair	10 to 79.4	acceleration in the kinetics of recovery	reduced the initial magnitude of the injury
Cn1nccc1NC(=O)[C@H]1C[C@H](Oc2cccc3scnc23)C1 [Example 249, (trans)-3-(Benzo[d]thiazol-4-yloxy)-N-(1-methyl-1H-pyrazol-5-yl)cyclobutanecarboxamide]	–	100 to 1000	–	–
